Results: PMC12254266, “Multicolored sequential resonance energy transfer for detection of simultaneous ligand binding at G protein-coupled receptors” (Nature Communications, 2025)
Where “and” joins values, the source holds several entries; their conditions need not be identical. Identical values can stand only once.

Tests used:
FFA1 = FFA1 (Homo sapiens, UniProt O14842); assay: Ca2+ mobilisation (Fura2) in Flp-In T-REx 293 cells expressing Nluc-FFA1, FFA1-Nluc or untagged FFA1; format: cell-based; design: expressed in transfected cells; settings: for pEC50: Ca2+ data, mean±SEM; for pEC50 / EMax: NR = No response; for EMax: percentage of response to 10 μM T360; for Ca2+ Response as a % of T360 Response: single technical replicates
Protocol: Nluc-FFA1, FFA1-Nluc or untagged FFA1 Flp-In T-REx 293 cells were plated at 50,000 cells per well in poly-D-lysine coated black clear bottom 96-well plates. Cells were then cultured for 24 h until reaching confluency before culture medium was replaced with medium containing 100 ng/mL of doxycycline to induce receptor expression. Cells were cultured for a further 24 h before the assay. On the day of the assay culture medium was removed and replaced with medium containing 3 μM Fura2-AM Ca^2+ dye. […] Fura2 fluorescent emission at 520 nm following excitation with each of 340 and 380 nm was measured in regular intervals both before and after adding test compounds for a total of 90 s per well. Calcium responses were determined by taking the peak 340/380 ratio after first subtracting the ratios obtained prior to addition of test compound.

FFA1-Nluc = FFA1-Nluc (Homo sapiens, UniProt O14842); assay: DISCo-BRET (endpoint, spectra scan, kinetics) with TUG-2591 and TUG-2597 at C terminal Nluc tagged FFA1; format: binding; design: expressed in transfected cells; settings: for Specific BRET (690/540), % of control: Figure 4Aiii; for Specific BRET (690/540), % of control / Specific BRET (540/450), % of control: single replicate values (technical duplicate); for Specific BRET (540/450), % of control: Figure 4Biii
Protocol: Nluc-FFA1 or FFA1-Nluc Flp-In T-REx 293 cells were plated at 50,000 cells per well in poly-D-lysine coated white 96-well plates. Cells were cultured for 24 h in the plate before medium was replaced with medium containing 100 ng/mL of doxycycline to induce receptor expression. After culturing for a further 24 h, culture medium was removed, cells washed with HBSS and incubated in HBSS for 30 min. For all DISCo-BRET formats Nano-Glo substrate was then added at a 1:800 final dilution and cells incubated for 10 min. Following substrate addition experimental set up different among the three formats: endpoint, spectra scan, and kinetics.
For endpoint experiments all fluorescent and unlabelled ligands were added to the cells and incubated for 5 min at 37 °C. Luminescent emission was then measured using a CLARIOstar microplate reader with monochromator set at 450–60 nm (Nluc), 540−60 nm (NBD) and 690–100 nm (SulfoCy5). BRET ratios were then calculated as either SulfoCy5 emission divided by NBD emission, SulfoCy5 emission divided by Nluc emission, or NBD emission divided by Nluc emission.
For spectra scan experiments all indicated fluorescent and unlabelled ligands were added to the cells and cells incubated for 5 min at 37 °C. Luminescence emissions were then measured from each well of the plate from 440 nm – 740 nm with a 5 nm resolution using a CLARIOstar microplate. Luminescent emission spectra were then normalised as a percentage of the maximal Nluc emission peak ( ~ 460 nm), then subtracted with the spectrum obtained in the presence of high concentrations of ligands competing for both binding sites to obtain specific BRET binding spectra.
In kinetic DISCo-BRET experiments plates were placed directly in a CLARIOstar plate reader set to 25 °C 10 min after Nano-Glo substrate addition. Luminescent measurements were then taken with three sequential measurements per well with the monochromator set to 450–60 nm (Nluc), 540 - 60 nm (NBD) and 690–100 nm (SulfoCy5) taken in 20 or 30 s intervals. After 5 min of background measurements, the plate reader was paused for the first indicated fluorescent ligand(s) addition, before immediately returning the plate to the reader to continue luminescence readings. After 5 min, the reader was again paused to add the second fluorescent ligand (association assays) or competing ligand(s) (dissociation assays), before immediately continuing the measurements for the indicated time. Non-specific control binding was obtained by adding the indicated competing ligand(s) 5 min prior to the addition of the first fluorescent ligand.

Chain of FFA1-Nluc (O14842 whole entry): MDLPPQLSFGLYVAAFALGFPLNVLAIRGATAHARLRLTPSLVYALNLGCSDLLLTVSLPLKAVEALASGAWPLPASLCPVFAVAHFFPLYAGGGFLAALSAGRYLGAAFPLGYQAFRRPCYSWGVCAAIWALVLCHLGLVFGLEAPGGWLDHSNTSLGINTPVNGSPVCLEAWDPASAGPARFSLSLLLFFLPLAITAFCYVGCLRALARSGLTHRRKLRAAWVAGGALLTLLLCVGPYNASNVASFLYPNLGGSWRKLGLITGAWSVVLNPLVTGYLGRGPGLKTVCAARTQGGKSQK
Chain of FFA1 (O14842 whole entry): as above

| Compound | pEC50 (FFA1) | EMax (FFA1) | Ca2+ Response as a % of T360 Response (FFA1; log[Ligand] -5.5) | Ca2+ Response as a % of T360 Response (FFA1; log[Ligand] -6) | Ca2+ Response as a % of T360 Response (FFA1; log[Ligand] -6.5) | Ca2+ Response as a % of T360 Response (FFA1; log[Ligand] -7) | Ca2+ Response as a % of T360 Response (FFA1; log[Ligand] -8) | Ca2+ Response as a % of T360 Response (FFA1; log[Ligand] -9) | also measured |
| --- | --- | --- | --- | --- | --- | --- | --- | --- | --- |
| COc1ccc(C(=O)N2CCN(CCNC(=O)OC(C)(C)C)CC2)c(N2CCC(COc3cccc(C(CC(=O)O)C4CC4)c3)CC2)c1.Cl (centres unmarked) [TUG-2458] | 5.38±0.09 | 133±5% | – | – | – | – | – | – | – |
| COc1ccc(C(=O)N(CC(C)(C)CNc2ccc([N+](=O)[O-])c3nonc23)c2ccccc2)c(N2CCC(COc3cccc(C(CC(=O)O)C4CC4)c3)CC2)c1.O=C(O)C(F)(F)F (centres unmarked) [TUG-2490] | 5.95±0.16 | – | 93.1455% and 77.9850% and 75.8107% and 96.4232% and 72.2793% and 68.6021% | 53.6775% and 46.6859% and 50.0991% and 72.4727% and 32.6717% and 50.6607% | 16.7030% and 15.2768% and 30.6910% and 52.9860% and 26.5604% and 17.0828% | -0.5150% and -0.6020% and 9.0880% and 4.0961% and 1.0500% and 13.2109% | -0.3253% and 0.1971% and 2.2527% and 3.6975% and -0.7574% and 0.7574% | 3.6767% and 1.4233% and -0.8955% and -4.2309% and 0.8739% and -0.0879% | – |
| COc1ccc(C(=O)N(CC(C)(C)C)c2cccc(C)n2)c(N2CCC(COc3cccc(C(CC(=O)NCCCNc4ccc([N+](=O)[O-])c5nonc45)C4CC4)c3)CC2)c1.O=C(O)C(F)(F)F (centres unmarked) [TUG-2598] | – | – | 1.5741% and 1.0900% and 0.3918% and 0.5253% and 0.2798% and 0.0720% and 0.3603% and 1.4514% and 1.2937% | 0.7619% and 0.7231% and 2.0549% and 2.7546% and 3.4553% and 0.9789% and -0.3872% and -0.5141% and 0.0396% | 0.0902% and 2.5170% and 0.7188% and 6.6987% and 2.2005% and 0.1478% and -0.6706% and 0.0668% and 0.2619% | 0.1653% and 1.3781% and 1.4889% and 2.9024% and 3.7196% and 2.7339% and -0.5451% and -0.2430% and 0.9384% | 0.4880% and 2.3639% and 0.4031% and 3.7453% and 1.7322% and 2.3495% and 0.5137% and 0.8889% and 1.3866% | 4.5581% and 0.9272% and 0.1871% and 0.2081% and 3.1188% and 3.6549% and 0.3770% and -0.1948% and -0.1822% | activity in Ca2+ assays (FFA1; in words): loss of activity; Ca2+ Response as a % of T360 Response (FFA1; log[Ligand] -5): 7.1012% and 15.2717% and 1.6246% and 2.7551% and 3.0159% and 6.2735% and 0.8241% and 1.6284% and -0.5359% |
| COc1ccc(C(=O)N2CCC(CCNC(=O)OC(C)(C)C)CC2)c(N2CCC(COc3cccc(C(CC(=O)O)C4CC4)c3)CC2)c1.O=C(O)C(F)(F)F (centres unmarked) [TUG-2451] | 6.20±0.14 | 112±10% | – | – | – | – | – | – | – |
| COc1ccc(C(=O)NCC(C)(C)CNc2ccc([N+](=O)[O-])c3nonc23)c(N2CCC(COc3cccc(C(CC(=O)O)C4CC4)c3)CC2)c1.O=C(O)C(F)(F)F (centres unmarked) [TUG-2489] | 5.29±0.04 | – | 75.8584% and 55.2490% and 64.4948% and 77.9746% and 61.7732% and 62.6510% | 11.4043% and 15.1652% and 19.0434% and 4.1691% and 0.1177% and 9.7037% | 0.7033% and -0.7918% and -3.1732% and -6.5594% and 0.0827% and 3.4744% | -3.1258% and 4.2395% and 1.6831% and -3.2821% and -0.2376% and 1.2224% | -0.4995% and 5.1700% and -1.2657% and 6.6097% and 0.3774% and -0.3774% | 0.4589% and 3.5934% and -2.5884% and -5.3677% and 0.8677% and 2.5453% | Ca2+ Response as a % of T360 Response (FFA1; log[Ligand] -5): 102.5277% and 96.3666% and 102.3411% and 80.8186% and 76.8959% |
| COc1ccc(C(=O)N(CCNC(=O)OC(C)(C)C)c2ccccc2)c(N2CCC(COc3cccc(C(CC(=O)O)C4CC4)c3)CC2)c1.Cl (centres unmarked) [TUG-2455] | 6.63±0.10 | 103±12% | – | – | – | – | – | – | – |
| CCCN1C(=O)c2ccccc2[C@@H](C(=O)O)[C@@H]1c1ccc(OCc2cccc(C(F)(F)F)c2)cc1 [TUG-2743] | – | – | – | – | – | – | – | – | pIC50 DISCo-BRET NBD/Nluc (FFA1-Nluc; 100 nM TUG-2591 and […] TUG-2597, NC = No competition): 6.1±0.2; pIC50 DISCo-BRET SulfoCy5/NBD (FFA1-Nluc; 100 nM TUG-2591 and […] TUG-2597, one site model, NC = No competition): 6.0±0.1; Specific BRET (690/540), % of control (FFA1-Nluc; log[Ligand] -5): 6.26 % of control and 15.30 % of control and 0.00 % of control and 23.39 % of control and 7.57 % of control and 16.15 % of control and 4.80 % of control and 5.42 % of control; Specific BRET (540/450), % of control (FFA1-Nluc; log[Ligand] -5): 61.42 % of control and 37.32 % of control and -37.32 % of control and -3.93 % of control and 3.93 % of control and 54.66 % of control and 43.23 % of control; Specific BRET (690/540), % of control (FFA1-Nluc; log[Ligand] -5.5): 25.12 % of control and 40.23 % of control and 23.90 % of control and 52.64 % of control and 8.58 % of control and 35.72 % of control and 22.62 % of control and 24.58 % of control; Specific BRET (540/450), % of control (FFA1-Nluc; log[Ligand] -5.5): 68.58 % of control and 86.33 % of control and -8.16 % of control and -102.04 % of control and 41.80 % of control and 13.93 % of control and 39.36 % of control and 39.62 % of control; Specific BRET (690/540), % of control (FFA1-Nluc; log[Ligand] -6): 58.42 % of control and 58.33 % of control and 46.92 % of control and 53.66 % of control and 32.09 % of control and 48.03 % of control and 43.57 % of control and 46.72 % of control; Specific BRET (540/450), % of control (FFA1-Nluc; log[Ligand] -6): 100.93 % of control and 79.17 % of control and 5.25 % of control and 9.91 % of control and 41.19 % of control and 34.87 % of control and 62.06 % of control; Specific BRET (690/540), % of control (FFA1-Nluc; log[Ligand] -6.5): 76.32 % of control and 72.57 % of control and 71.58 % of control and 84.17 % of control and 56.21 % of control and 64.88 % of control and 65.73 % of control and 61.96 % of control; Specific BRET (690/540), % of control (FFA1-Nluc; log[Ligand] -7): 89.22 % of control and 91.72 % of control and 94.47 % of control and 101.84 % of control and 86.98 % of control and 84.36 % of control and 91.26 % of control and 83.54 % of control; Specific BRET (540/450), % of control (FFA1-Nluc; log[Ligand] -7): 106.08 % of control and 110.38 % of control and 76.97 % of control and 86.30 % of control and 79.83 % of control and 51.81 % of control and 67.53 % of control and 67.76 % of control; Specific BRET (690/540), % of control (FFA1-Nluc; log[Ligand] -8): 93.65 % of control and 94.71 % of control and 131.47 % of control and 106.17 % of control and 87.89 % of control and 98.79 % of control and 100.59 % of control and 92.67 % of control; Specific BRET (540/450), % of control (FFA1-Nluc; log[Ligand] -8): 118.40 % of control and 124.70 % of control and 235.57 % of control and 32.65 % of control and 76.75 % of control and 53.35 % of control and 80.89 % of control and 68.94 % of control; Specific BRET (690/540), % of control (FFA1-Nluc; log[Ligand] -9): 99.33 % of control and 100.67 % of control and 26.06 % of control and 102.35 % of control and 91.83 % of control and 93.74 % of control; Specific BRET (540/450), % of control (FFA1-Nluc; log[Ligand] -9): 129.56 % of control and 130.71 % of control and -41.98 % of control and 129.45 % of control and 107.24 % of control and 49.50 % of control and 87.02 % of control and 76.46 % of control; 'bottom' of the IC50 curve, DISCo-BRET NBD/Nluc (FFA1-Nluc; percentage of binding obtained in the absence of competing ligand): 10%; 'bottom' of the IC50 curve, DISCo-BRET SulfoCy5/NBD (FFA1-Nluc; percentage of binding obtained in the absence of competing ligand, 100 nM TUG-2591 and […] TUG-2597): 3.2%; pKi DISCo-BRET SulfoCy5/NBD (FFA1-Nluc; using Kd TUG-2591 57 nM): 6.5±0.1 |
